Test [1] deals with Staphylococcus aureus. In words: Antibacterial activity against Staphylococcus aureus ATCC 29213 by CLSI M07-A8 protocol based microdilution method. In kind it is functional. In general terms: In broth dilution the organism is exposed to a series of concentrations in liquid medium.
The test system of test [2] is Staphylococcus aureus. The experiment in a line: Antibacterial activity against methicillin-resistant Staphylococcus aureus SA86 by CLSI M07-A8 protocol based microdilution method. In kind it is functional.

Converted amounts (≈) assume the structure as drawn.

The values below come from ChEMBL document CHEMBL4725375, “Total synthesis and a systematic structure-activity relationship study of WAP-8294A2” (2020).

By MIC is commonly meant the lowest concentration found to suppress growth. The low end stands for inhibition by little substance, the high end for a need for much substance.

Take `CC(C)CCC[C@@H]1CC(=O)N[C@@H](CCCCN)C(=O)N[C@H](CC(N)=O)C(=O)N[C@@H](CO)C(=O)NCC(=O)N(C)[C@H](Cc2ccccc2)C(=O)N[C@@H](CC(C)C)C(=O)N[C@H](CCCN)C(=O)N[C@@H](CCC(=O)O)C(=O)N[C@H](CC(N)=O)C(=O)N[C@H](Cc2c[nH]c3ccccc23)C(=O)N[C@H](CCCN)C(=O)N(C)[C@@H](C(C)C)C(=O)O1`: the MIC against Staphylococcus aureus [1] and in the test with Staphylococcus aureus [2] was 2 µg/mL (≈ 1.26 µM) throughout.
As for `CC(C)CCC[C@@H]1CC(=O)N[C@@H](CO)C(=O)N[C@H](C)C(=O)N[C@@H](CO)C(=O)NCC(=O)N(C)[C@H](Cc2ccccc2)C(=O)N[C@@H](CC(C)C)C(=O)N[C@H](CCCN)C(=O)N[C@@H](CCC(=O)O)C(=O)N[C@H](CC(N)=O)C(=O)N[C@H](Cc2c[nH]c3ccccc23)C(=O)N[C@H](CCCN)C(=O)N(C)[C@@H](C(C)C)C(=O)O1`, the values for the MIC in the test with Staphylococcus aureus [1] and with Staphylococcus aureus [2] were 1 µg/mL (≈ 0.665 µM) and 2 µg/mL (≈ 1.33 µM), respectively.
As to `CC(C)CCC[C@@H]1CC(=O)N[C@@H](CO)C(=O)N[C@H](CC(N)=O)C(=O)N[C@@H](CO)C(=O)NCC(=O)N(C)[C@H](Cc2ccccc2)C(=O)N[C@@H](CC(C)C)C(=O)N[C@H](CCCN)C(=O)N[C@@H](CCC(=O)O)C(=O)N[C@H](CC(N)=O)C(=O)N[C@H](Cc2c[nH]c3ccccc23)C(=O)N[C@H](CCCNC(=N)N)C(=O)N(C)[C@@H](C(C)C)C(=O)O1`, the MIC against Staphylococcus aureus [1] came out at 1 µg/mL (≈ 0.629 µM); in the test on Staphylococcus aureus [2], 2 µg/mL (≈ 1.26 µM).
For `CC(C)CCC[C@@H]1CC(=O)N[C@@H](CO)C(=O)N[C@H](CC(N)=O)C(=O)N[C@@H](CO)C(=O)NCC(=O)N(C)[C@H](Cc2ccccc2)C(=O)N[C@@H](CC(C)C)C(=O)N[C@H](CCCCN)C(=O)N[C@@H](CCC(=O)O)C(=O)N[C@H](CC(N)=O)C(=O)N[C@H](Cc2c[nH]c3ccccc23)C(=O)N[C@H](CCCN)C(=O)N(C)[C@@H](C(C)C)C(=O)O1`, the minimal inhibitory concentration (MIC) against Staphylococcus aureus [1] is 1 µg/mL (≈ 0.641 µM); against Staphylococcus aureus [2] it was 2 µg/mL (≈ 1.28 µM).
The like results for `CC(C)CCC[C@@H]1CC(=O)N[C@@H](CO)C(=O)N[C@H](CC(N)=O)C(=O)N[C@@H](CO)C(=O)NCC(=O)N(C)[C@H](Cc2ccccc2)C(=O)N[C@@H](CC(C)C)C(=O)N[C@H](CCCN)C(=O)N[C@@H](CCCCN)C(=O)N[C@H](CC(N)=O)C(=O)N[C@H](Cc2c[nH]c3ccccc23)C(=O)N[C@H](CCCN)C(=O)N(C)[C@@H](C(C)C)C(=O)O1` were, in that order, 2 µg/mL (≈ 1.29 µM) and 1 µg/mL (≈ 0.647 µM).
In the same order, the values of `CC(C)CCC[C@@H]1CC(=O)N[C@@H](CO)C(=O)N[C@H](CC(N)=O)C(=O)N[C@@H](CO)C(=O)NCC(=O)N(C)[C@H](Cc2ccccc2)C(=O)N[C@@H](CC(C)C)C(=O)N[C@H](CCCN)C(=O)N[C@@H](C)C(=O)N[C@H](CC(N)=O)C(=O)N[C@H](Cc2c[nH]c3ccccc23)C(=O)N[C@H](CCCN)C(=O)N(C)[C@@H](C(C)C)C(=O)O1` are 1 µg/mL (≈ 0.672 µM) and 0.5 µg/mL (≈ 0.336 µM).
The like results for `CC(C)CCC[C@@H]1CC(=O)N[C@@H](CO)C(=O)N[C@H](CC(N)=O)C(=O)N[C@@H](CO)C(=O)NCC(=O)N(C)[C@H](Cc2ccccc2)C(=O)N[C@@H](CC(C)C)C(=O)N[C@H](C)C(=O)N[C@@H](CCC(=O)O)C(=O)N[C@H](CC(N)=O)C(=O)N[C@H](Cc2c[nH]c3ccccc23)C(=O)N[C@H](CCCN)C(=O)N(C)[C@@H](C(C)C)C(=O)O1` were, in that order, ≥ 32 µg/mL and ≥ 32 µg/mL.
